Measurements as given in the supplement of paper PMC10627819.

Key:
[1] = tested on: S. pneumoniae D39V; test: fitness (endpoint OD595 vs no drug) (fraction); higher = more growth
Summary of the method: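 In 384-well plates at 37 °C, cultures began at OD595 0.01 in 30 µl, with 55 µl used for S. pneumoniae. OD595 readings every 30 min for 14 h were corrected by the first reading. Fitness divides the stationary-phase transition optical density by the robust mean of no-drug control wells. The result is capped at 1.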

[2] = tested on: B. subtilis 168; test: Bliss interaction score (quartile over a dose matrix) (fitness difference); higher = more antagonism (negative = synergy)
Summary of the method: (§1)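 Combination data were used to infer fitness under each single drug. Fitness is the OD595 at entry into stationary phase divided by the robust mean of the plate's no-drug wells, with a cap of 1. The Bliss score is the observed minus the expected product fitness, summarised by quartiles over technical, biological and donor/recipient replicates.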

[3] = tested on: S. pneumoniae D39V; test: as above
Summary of the method: as §1

[4] = tested on: S. aureus DSM 20231; test: as above
Summary of the method: as §1

[5] = tested on: S. aureus Newman; test: as above
Summary of the method: as §1
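Wherever Bliss interaction score (quartile over a dose matrix) is given: first quartile when negative (synergy) and third quartile when positive (antagonism).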

C[C@H]1c2cccc(O)c2C(=O)C2=C(O)[C@]3(O)C(=O)C(C(N)=O)=C(O)[C@@H](N(C)C)[C@@H]3[C@@H](O)[C@@H]21 [Doxycycline] + Clc1ccc(COC(Cn2ccnc2)c2ccc(Cl)cc2Cl)c(Cl)c1 [Miconazole]
fitness, [1], one replicate
Conditions	first compound 0.003875 µg/mL	first compound 0.00775 µg/mL	first compound 0.031 µg/mL	first compound 0.062 µg/mL
partner 1.25 µg/mL	0.936	0.934	0.852	0.731
partner 2.5 µg/mL	0.925	0.964	0.878	0.74
partner 5 µg/mL	0.954	0.96	0.854	0.689

fitness, [1]
Conditions	partner 1.073 µg/mL	partner 1.25 µg/mL	partner 2.145 µg/mL	partner 2.5 µg/mL	partner 4.29 µg/mL	partner 5 µg/mL
first compound 0.0155 µg/mL	0.947	0.923	0.96	0.936	0.895	0.911
first compound 0.031 µg/mL	0.937	–	0.95	–	0.912	–
first compound 0.062 µg/mL	0.895	–	0.908	–	0.835	–

Conditions	Bliss interaction score
[2]	0.0453
[3]	0.0669
[4]	0.0575
[5]	-0.0138

C[C@H]1c2cccc(O)c2C(=O)C2=C(O)[C@]3(O)C(=O)C(C(N)=O)=C(O)[C@@H](N(C)C)[C@@H]3[C@@H](O)[C@@H]21 [Doxycycline] + C[C@@H](O)[C@H]1C(=O)N2C(C(=O)O)=C(SCCNC=N)C[C@H]12 [Imipenem]
fitness, [1], one replicate
Conditions	first compound 0.003875 µg/mL	first compound 0.00775 µg/mL	first compound 0.031 µg/mL	first compound 0.062 µg/mL
partner 0.005 µg/mL	≥ 1	0.998	0.87	0.739
partner 0.01 µg/mL	≥ 1	0.973	0.808	0.74
partner 0.02 µg/mL	≥ 1	0.993	0.834	0.706

fitness, [1]
Conditions	partner 0.005 µg/mL	partner 0.0065 µg/mL	partner 0.01 µg/mL	partner 0.013 µg/mL	partner 0.02 µg/mL	partner 0.026 µg/mL
first compound 0.0155 µg/mL	0.989	0.886	0.931	0.845	0.928	0.746
first compound 0.031 µg/mL	–	0.825	–	0.826	–	0.789
first compound 0.062 µg/mL	–	0.753	–	0.78	–	0.759

Conditions	Bliss interaction score
[2]	0.222
[3]	-0.0283
[4]	-0.0172
[5]	0.0141

Cc1ncc([N+](=O)[O-])n1CCO [Metronidazole] + CO[C@H]1/C=C/O[C@@]2(C)Oc3c(C)c(O)c4c(O)c(c(/C=N/N5CCN(C)CC5)c(O)c4c3C2=O)NC(=O)/C(C)=C\C=C\[C@H](C)[C@H](O)[C@@H](C)[C@@H](O)[C@@H](C)[C@H](OC(C)=O)[C@@H]1C [Rifampicin]
fitness, [1]
Conditions	first compound 1.073 µg/mL	first compound 1.25 µg/mL	first compound 2.145 µg/mL	first compound 2.5 µg/mL	first compound 4.29 µg/mL	first compound 5 µg/mL
partner 0.05 µg/mL	0.881	0.81	0.907	0.83	0.84	0.839
partner 0.1 µg/mL	0.577	–	0.617	–	0.677	–
partner 0.2 µg/mL	0.302	–	0.35	–	–	–

fitness, [1], one replicate
Conditions	first compound 1.25 µg/mL	first compound 2.5 µg/mL	first compound 5 µg/mL
partner 0.025 µg/mL	0.897	0.907	0.892
partner 0.2 µg/mL	0	0	0

Conditions	Bliss interaction score
[2]	0.0335
[3]	0.104
[4]	-0.0591
[5]	0.0408

COc1cccc2c1C(=O)c1c(O)c3c(c(O)c1C2=O)C[C@@](O)(C(=O)CO)C[C@@H]3O[C@H]1C[C@H](N)[C@H](O)[C@H](C)O1 [Doxorubicin] + CO[C@H]1/C=C/O[C@@]2(C)Oc3c(C)c(O)c4c(O)c(c(/C=N/N5CCN(C)CC5)c(O)c4c3C2=O)NC(=O)/C(C)=C\C=C\[C@H](C)[C@H](O)[C@@H](C)[C@@H](O)[C@@H](C)[C@H](OC(C)=O)[C@@H]1C [Rifampicin]
fitness, [1]
Conditions	first compound 0.25 µg/mL	first compound 0.5 µg/mL	first compound 1 µg/mL
partner 0.025 µg/mL	0.985	0.991	0.866
partner 0.05 µg/mL	–	0.94	–
partner 0.1 µg/mL	0.323	0.397	0.318

[1], partner 0.2 µg/mL, one replicate
Conditions	fitness
first compound 0.25 µg/mL	0
first compound 0.5 µg/mL	0
first compound 1 µg/mL	0

Conditions	Bliss interaction score
[2]	0.0845
[3]	-0.058
[4]	-0.0908
[5]	-0.029

C[C@H]1c2cccc(O)c2C(=O)C2=C(O)[C@]3(O)C(=O)C(C(N)=O)=C(O)[C@@H](N(C)C)[C@@H]3[C@@H](O)[C@@H]21 [Doxycycline] + CN[C@H](CC(C)C)C(=O)N[C@H]1C(=O)N[C@@H](CC(N)=O)C(=O)N[C@H]2C(=O)N[C@H]3C(=O)N[C@H](C(=O)N[C@H](C(=O)O)c4cc(O)cc(O)c4-c4cc3ccc4O)[C@H](O)c3ccc(c(Cl)c3)Oc3cc2cc(c3O[C@@H]2O[C@H](CO)[C@@H](O)[C@H](O)[C@H]2O[C@H]2C[C@](C)(N)[C@H](O)[C@H](C)O2)Oc2ccc(cc2Cl)[C@H]1O [Vancomycin]
fitness, [1], one replicate
Conditions	first compound 0.003875 µg/mL	first compound 0.00775 µg/mL	first compound 0.031 µg/mL	first compound 0.062 µg/mL
partner 0.125 µg/mL	0.882	0.989	–	–
partner 0.25 µg/mL	0.29	0.571	0.753	0.629
partner 0.5 µg/mL	0.0216	0.0253	0.128	0.0893

fitness, [1]
Conditions	partner 0.03125 µg/mL	partner 0.0625 µg/mL	partner 0.125 µg/mL	partner 0.25 µg/mL	partner 0.5 µg/mL
first compound 0.0155 µg/mL	0.903	0.876	0.913	0.802	0.105
first compound 0.031 µg/mL	0.838	0.79	0.767	–	–
first compound 0.062 µg/mL	0.84	0.783	–	–	–

Conditions	Bliss interaction score
[2]	0.0535
[3]	0.101
[4]	0.0785
[5]	0.0371

C[C@H]1c2cccc(O)c2C(=O)C2=C(O)[C@]3(O)C(=O)C(C(N)=O)=C(O)[C@@H](N(C)C)[C@@H]3[C@@H](O)[C@@H]21 [Doxycycline] + CO[C@H]1/C=C/O[C@@]2(C)Oc3c(C)c(O)c4c(O)c(c(/C=N/N5CCN(C)CC5)c(O)c4c3C2=O)NC(=O)/C(C)=C\C=C\[C@H](C)[C@H](O)[C@@H](C)[C@@H](O)[C@@H](C)[C@H](OC(C)=O)[C@@H]1C [Rifampicin]
[1], one replicate
Conditions	fitness
first compound 0.003875 µg/mL, partner 0.05 µg/mL	0.802
first compound 0.003875 µg/mL, partner 0.1 µg/mL	0.36
first compound 0.003875 µg/mL, partner 0.2 µg/mL	0.109
first compound 0.00775 µg/mL, partner 0.05 µg/mL	0.864
first compound 0.00775 µg/mL, partner 0.1 µg/mL	0.494
first compound 0.00775 µg/mL, partner 0.2 µg/mL	0.207
first compound 0.0155 µg/mL, partner 0.025 µg/mL	0.912
first compound 0.031 µg/mL, partner 0.025 µg/mL	0.927
first compound 0.062 µg/mL, partner 0.025 µg/mL	0.825

fitness, [1]
Conditions	first compound 0.0155 µg/mL	first compound 0.031 µg/mL	first compound 0.062 µg/mL
partner 0.05 µg/mL	0.863	0.861	–
partner 0.1 µg/mL	–	–	0.307
partner 0.2 µg/mL	0.199	0.113	0.0818

Conditions	Bliss interaction score
[2]	-0.253
[3]	-0.0813
[4]	-0.0196
[5]	-0.0119

C[C@H]1c2cccc(O)c2C(=O)C2=C(O)[C@]3(O)C(=O)C(C(N)=O)=C(O)[C@@H](N(C)C)[C@@H]3[C@@H](O)[C@@H]21 [Doxycycline] + O=C1CN(/N=C/c2ccc([N+](=O)[O-])o2)C(=O)N1 [Nitrofurantoin]
fitness, [1], one replicate
Conditions	first compound 0.003875 µg/mL	first compound 0.00775 µg/mL	first compound 0.0155 µg/mL	first compound 0.031 µg/mL	first compound 0.062 µg/mL
partner 2 µg/mL	≥ 1	0.943	–	0.77	0.68
partner 4 µg/mL	0.993	0.953	–	0.809	0.681
partner 5.14 µg/mL	–	–	0.875	0.894	0.828
partner 8 µg/mL	0.766	0.824	–	0.8	0.741

fitness, [1]
Conditions	partner 1.285 µg/mL	partner 2 µg/mL	partner 2.57 µg/mL	partner 4 µg/mL	partner 8 µg/mL
first compound 0.0155 µg/mL	0.899	0.9	0.944	0.898	0.877
first compound 0.031 µg/mL	0.896	–	0.92	–	–
first compound 0.062 µg/mL	0.837	–	0.869	–	–

Conditions	Bliss interaction score
[2]	0.0854
[3]	0.0703
[4]	-0.0256
[5]	-0.0329

C[C@@H]1O[C@@H]1P(=O)(O)O [Fosfomycin] + O=C1CN(/N=C/c2ccc([N+](=O)[O-])o2)C(=O)N1 [Nitrofurantoin]
fitness, [1]
Conditions	partner 1.285 µg/mL	partner 2 µg/mL	partner 2.57 µg/mL	partner 4 µg/mL	partner 8 µg/mL
first compound 1.25 µg/mL	0.96	0.91	0.966	0.871	–
first compound 2.5 µg/mL	0.936	0.879	0.964	0.887	–
first compound 5 µg/mL	0.851	0.778	0.858	0.77	0.627

[1], partner 5.14 µg/mL, one replicate
Conditions	fitness
first compound 1.25 µg/mL	0.923
first compound 2.5 µg/mL	0.898
first compound 5 µg/mL	0.866

Conditions	Bliss interaction score
[2]	-0.0694
[3]	0.122
[4]	-0.0181
[5]	0.0702

COc1cccc2c1C(=O)c1c(O)c3c(c(O)c1C2=O)C[C@@](O)(C(=O)CO)C[C@@H]3O[C@H]1C[C@H](N)[C@H](O)[C@H](C)O1 [Doxorubicin] + C[C@@H](O)[C@H]1C(=O)N2C(C(=O)O)=C(SCCNC=N)C[C@H]12 [Imipenem]
fitness, [1]
Conditions	partner 0.005 µg/mL	partner 0.0065 µg/mL	partner 0.01 µg/mL	partner 0.013 µg/mL	partner 0.02 µg/mL	partner 0.026 µg/mL
first compound 0.25 µg/mL	0.954	0.913	0.958	0.836	0.949	0.831
first compound 0.5 µg/mL	0.981	0.858	0.958	0.844	0.971	0.842
first compound 1 µg/mL	0.909	0.858	0.877	0.894	0.872	0.789

Conditions	Bliss interaction score
[2]	-0.197
[3]	0.0651
[4]	-0.0485
[5]	-0.0256

CO/N=C(\C(=O)N[C@@H]1C(=O)N2C(C(=O)O)=C(COC(C)=O)CS[C@H]12)c1csc(N)n1 [Cefotaxime] + O=C1CN(/N=C/c2ccc([N+](=O)[O-])o2)C(=O)N1 [Nitrofurantoin]
fitness, [1]
Conditions	partner 1.285 µg/mL	partner 2 µg/mL	partner 2.57 µg/mL	partner 4 µg/mL	partner 8 µg/mL
first compound 0.0018 µg/mL	0.974	0.94	0.959	0.944	0.873
first compound 0.0035 µg/mL	0.963	0.92	0.965	0.916	0.822
first compound 0.007 µg/mL	0.923	0.844	0.923	0.821	0.733

[1], partner 5.14 µg/mL, one replicate
Conditions	fitness
first compound 0.0018 µg/mL	0.981
first compound 0.0035 µg/mL	0.945
first compound 0.007 µg/mL	0.894

Conditions	Bliss interaction score
[2]	-0.157
[3]	0.142
[4]	0.0224
[5]	0.0592

O=C(O)c1cn(C2CC2)c2cc(N3CCNCC3)c(F)cc2c1=O [Ciprofloxacin] + C[C@@H](O)[C@H]1C(=O)N2C(C(=O)O)=C(SCCNC=N)C[C@H]12 [Imipenem]
fitness, [1]
Conditions	partner 0.005 µg/mL	partner 0.0065 µg/mL	partner 0.01 µg/mL	partner 0.013 µg/mL	partner 0.02 µg/mL	partner 0.026 µg/mL
first compound 0.125 µg/mL	0.956	0.96	0.959	0.893	0.933	0.837
first compound 0.25 µg/mL	–	0.878	–	0.847	–	0.774
first compound 0.5 µg/mL	–	0.531	–	0.583	–	0.529

[1], first compound 0.25 µg/mL, one replicate
Conditions	fitness
partner 0.005 µg/mL	0.835
partner 0.01 µg/mL	0.824
partner 0.02 µg/mL	0.881

Conditions	Bliss interaction score
[2]	-0.149
[3]	0.0446
[4]	0.0301
[5]	0.016
